Entries after “also recorded” stand apart in the source; their conditions may differ. Marks after values point to notes of the source that are not given here.
Columns and labels:
[1] = Aqueous solubility test (vortexing in water); format: physicochemical; conditions: for solubility at 5 min: thermodynamic from solid, determined, water, 25 °C, 1 atm
Description: Aqueous solubility (S) test of the 17 ingredients was performed by vortexing 10 mg of each ingredient in […] water in a test tube at ambient temperature and 1 atm. After vortexing for 5 min, if the solution is clear, the tested object will be considered as soluble in water. In silico assessment of the physicochemical properties governing permeation and intestinal absorption was carried out for the 17 ingredients studied. Theory aqueous solubility (S) was calculated with ALOGPS 2.1 online software via the Virtual Computational Chemistry Laboratory service (Chemoinformatics Group, Neuherberg, Germany) (VCCLAB^1). The octanol–water partition coefficient (cLogP), the total hydrogen bond count (donors and acceptors), and topological polar surface area (TPSA) were determined using the Molinspiration Property Calculator (Molinspiration Cheminformatics, Bratislava, Slovak Republic^2). Lipinski’s rule of 5 was used to predict the permeability of the compound ([Lipinski et al., 2001]).

Caco-2 cell monolayers = conditions: ref Lu et al., 2008, Liu et al., 2009, Hu et al., 2014, Bowles et al., 2017, cited from earlier work; for Papp(apical→basolateral) / Papp(basolateral→apical): Caco-2 cell monolayers, from literature; for apparent permeability in Caco-2 cell monolayers: previous results
[2] = Stability tests in rat plasma (QC samples, HPLC-MS); conditions: n=5
Description: Accuracy and precision were expressed by relative error (RE) and coefficient of variance (RSD), respectively.

[3] = Multiple component PK study in rat plasma after p.o. GDDP (HPLC-MS); conditions: for detection in rat plasma: at 5, 10, 15, 30, 45, or 60 min, LOD 0.5–0.7 ng/mL; for AUC(0-inf) / AUC(0-t) / MRT inf / MRT last / Tmax / Cmax / half-life: Sprague-Dawley, rat, plasma, po
[4] = tested on: isoprenaline-induced MI in mice; experiment: In vivo anti-MI study: isoprenaline-induced myocardial injury (ECG, H&E histology)
[5] = 24h in auto-sampler vials, spiked 2 ng/mL
[6] = 24h in auto-sampler vials, spiked 400 ng/mL
[7] = 24h in auto-sampler vials, spiked 1600 ng/mL
[8] = Placing plasma for 6h at 4°C, spiked 2 ng/mL
[9] = Placing plasma for 6h at 4°C, spiked 400 ng/mL
[10] = Placing plasma for 6h at 4°C, spiked 1600 ng/mL
[11] = three freeze-thaw cycles, rat plasma, spiked 2 ng/mL
[12] = three freeze-thaw cycles, rat plasma, spiked 400 ng/mL
[13] = three freeze-thaw cycles, rat plasma, spiked 1600 ng/mL

O=C(O)/C=C/c1ccc(O)c(O)c1 [CA, caffeic acid]
solubility at 5 min [1]: > 10000 µg/mL | Papp(apical→basolateral) (Caco-2 cell monolayers): 4.35^b ×10^-6 cm/s | Papp(basolateral→apical) (Caco-2 cell monolayers): 7.74^b ×10^-6 cm/s | apparent permeability in Caco-2 cell monolayers (Caco-2 cell monolayers): ≥ 10^-6 cm/s

C[C@H]1COC2=C1C(=O)C(=O)c1c2ccc2c1CCCC2(C)C [CTS, cryptotanshinone]
solubility in water (in words) ([1]; water at 25 °C): insoluble | Papp(apical→basolateral) (Caco-2 cell monolayers): 1.59^d ×10^-6 cm/s | Papp(basolateral→apical) (Caco-2 cell monolayers): 8.36^d ×10^-6 cm/s | apparent permeability in Caco-2 cell monolayers (Caco-2 cell monolayers): ≥ 10^-6 cm/s | Stability: Measured [2, 5]: 1.79 ± 0.36 ng/mL | Stability: RE [2, 5]: -10.32% | Stability: Measured [2, 6]: 478.43 ± 27.22 ng/mL | Stability: RE [2, 6]: 19.61% | Stability: Measured [2, 7]: 1852.38 ± 164.86 ng/mL | Stability: RE [2, 7]: 15.77% | Stability: Measured [2, 8]: 1.79 ± 0.26 ng/mL | Stability: RE [2, 8]: -10.47% | Stability: Measured [2, 9]: 438.37 ± 50.69 ng/mL | Stability: RE [2, 9]: 9.59% | Stability: Measured [2, 10]: 1890.21 ± 223.22 ng/mL | Stability: RE [2, 10]: 18.14% | Stability: Measured [2, 11]: 1.62 ± 0.22 ng/mL | Stability: RE [2, 11]: -19.00% | Stability: Measured [2, 12]: 457.79 ± 26.04 ng/mL | Stability: RE [2, 12]: 14.45% | Stability: Measured [2, 13]: 1871.43 ± 321.89 ng/mL | Stability: RE [2, 13]: 16.96% | determination in rat plasma at the planned successive PK time points ([3]; GDDP 0.8 g/kg p.o., 5, 10, 15, 30, 45, 60, and 120 min, LOQ 1.0–1.4 ng/mL): could be determined | detection in rat plasma ([3]; GDDP 0.8 g/kg p.o.): could be detected | AUC(0-inf) ([3]; 0.4 g/kg): 1.72 ± 1.24 ng·h/mL | AUC(0-t) ([3]; 0.4 g/kg): 0.84 ± 0.03 ng·h/mL | MRT inf ([3]; 0.4 g/kg): 41.4 ± 39.6 min | MRT last ([3]; 0.4 g/kg): 13.8 ± 1.8 min | Tmax ([3]; 0.4 g/kg): 15 min | Cmax ([3]; 0.4 g/kg, Cmax, rat plasma, GDDP 0.4 g/kg p.o. (Low dose group), n=3): 2.33 ± 0.49 ng/mL | half-life ([3]; 0.4 g/kg, t1/2 β, rat plasma, GDDP 0.4 g/kg p.o. (Low dose group), n=3): 27 ± 27 min | AUC(0-inf) ([3]; 0.8 g/kg): 3.24 ± 1.09 ng·h/mL | AUC(0-t) ([3]; 0.8 g/kg): 2.76 ± 1.18 ng·h/mL | MRT inf ([3]; 0.8 g/kg): 50.4 ± 18 min | MRT last ([3]; 0.8 g/kg): 33.6 ± 13.2 min | Tmax ([3]; 0.8 g/kg): 15 min | Cmax ([3]; 0.8 g/kg, Cmax (high / low plasma drug concentrations), rats, GDDP 0.4 and 0.8 g/kg p.o., classification): < 10 ng/mL | Cmax ([3]; 0.8 g/kg, Cmax, rat plasma, GDDP 0.8 g/kg p.o. (High dose group), n=3): 4.09 ± 1.47 ng/mL | half-life ([3]; 0.8 g/kg, t1/2 β (fast / slow elimination type), rats, GDDP 0.4 and 0.8 g/kg p.o., classification): < 120 min | half-life ([3]; 0.8 g/kg, t1/2 β, rat plasma, GDDP 0.8 g/kg p.o. (High dose group), n=3): 34.2 ± 15.6 min | Cltot ([3]; rat plasma, GDDP 0.4 g/kg p.o. (Low dose group), n=3): 209.12 ± 151.07 L/h/kg | Cltot ([3]; rat plasma, GDDP 0.8 g/kg p.o. (High dose group), n=3): 175.44 ± 49.57 L/h/kg | Histopathology of heart tissue (H&E) ([4]; 40 mg/kg p.o. for 7 days, isoprenaline-induced MI, 40 mg/kg): remarkably severe histological damage with extensive myocardial lysis and architecture wrecking; also recorded: extremely severe histological damage with extensive myocardial lysis and architecture wrecking | ECG (lead II) findings on the fifth day of the trial ([4]; 40 mg/kg p.o., isoprenaline 5 mg/kg on days 4 and 5): T waves reversed or decreased

O=C(O)C(O)Cc1ccc(O)c(O)c1 (stereo not drawn) [DSS, danshensu]
solubility at 5 min [1]: > 10000 µg/mL | detection in rat plasma at more than 15 min after administration ([3]; GDDP 0.4 and 0.8 g/kg B.W.): could not be detected | detection in rat plasma ([3]; GDDP 0.8 g/kg p.o.): could be detected | plasma level ([3]; rats, GDDP 0.4 and 0.8 g/kg, more than 15 min after administration, below LOD): < 0.5 ng/mL

O=C(/C=C/c1ccc(O)c2c1[C@H](C(=O)O)[C@@H](c1ccc(O)c(O)c1)O2)O[C@H](Cc1ccc(O)c(O)c1)C(=O)O [LA, lithospermic acid]
solubility at 5 min [1]: > 10000 µg/mL | Papp(apical→basolateral) (Caco-2 cell monolayers): 0.0816^a ×10^-6 cm/s | Papp(basolateral→apical) (Caco-2 cell monolayers): 0.0413^a ×10^-6 cm/s

O=C(O)c1ccc(O)c(O)c1 [PCA, protocatechuic acid]
solubility at 5 min [1]: > 10000 µg/mL | Papp(apical→basolateral) (Caco-2 cell monolayers): 4.52^b ×10^-6 cm/s | Papp(basolateral→apical) (Caco-2 cell monolayers): 6.91^b ×10^-6 cm/s | apparent permeability in Caco-2 cell monolayers (Caco-2 cell monolayers): ≥ 10^-6 cm/s | detection in rat plasma ([3]; GDDP 0.8 g/kg p.o.): could be detected

O=Cc1ccc(O)c(O)c1 [PCAL, protocatechuic aldehyde]
solubility at 5 min [1]: > 10000 µg/mL | Papp(apical→basolateral) (Caco-2 cell monolayers): 12.1^a ×10^-6 cm/s | Papp(basolateral→apical) (Caco-2 cell monolayers): 21.8^a ×10^-6 cm/s | apparent permeability in Caco-2 cell monolayers (Caco-2 cell monolayers): ≥ 10^-6 cm/s | detection in rat plasma ([3]; GDDP 0.8 g/kg p.o.): could be detected

O=C(/C=C/c1ccc(O)c(O)c1)O[C@H](Cc1ccc(O)c(O)c1)C(=O)O [RA, rosmarinic acid]
solubility at 5 min [1]: > 10000 µg/mL | Papp(apical→basolateral) (Caco-2 cell monolayers): 0.523^a ×10^-6 cm/s | Papp(basolateral→apical) (Caco-2 cell monolayers): 0.550^a ×10^-6 cm/s

CC(C)=CCC[C@](C)(O[C@@H]1O[C@H](CO)[C@@H](O)[C@H](O)[C@H]1O)[C@H]1CC[C@]2(C)[C@@H]1[C@H](O)C[C@@H]1[C@@]3(C)CC[C@H](O)C(C)(C)[C@@H]3[C@@H](O[C@@H]3O[C@H](CO)[C@@H](O)[C@H](O)[C@H]3O[C@@H]3O[C@@H](C)[C@H](O)[C@@H](O)[C@H]3O)C[C@]12C [Re, ginsenoside Re]
solubility at 5 min [1]: > 10000 µg/mL | Papp(apical→basolateral) (Caco-2 cell monolayers): > 0.1^c ×10^-6 cm/s | Papp(basolateral→apical) (Caco-2 cell monolayers): > 0.1^c ×10^-6 cm/s | detection in rat plasma ([3]; GDDP 0.8 g/kg p.o.): could be detected

O=C(/C=C/c1ccc(O)c(O)c1/C=C/c1ccc(O)c(O)c1)OC(Cc1ccc(O)c(O)c1)C(=O)O (stereo not drawn) [SAA, SA A]
solubility at 5 min [1]: > 10000 µg/mL | Papp(apical→basolateral) (Caco-2 cell monolayers): 0.0595^a ×10^-6 cm/s | Papp(basolateral→apical) (Caco-2 cell monolayers): 0.0554^a ×10^-6 cm/s

O=C(/C=C/c1ccc(O)c2c1C(C(=O)OC(Cc1ccc(O)c(O)c1)C(=O)O)C(c1ccc(O)c(O)c1)O2)OC(Cc1ccc(O)c(O)c1)C(=O)O (stereo not drawn) [SAB, SA B]
solubility at 5 min [1]: > 10000 µg/mL | Papp(apical→basolateral) (Caco-2 cell monolayers): 0.0200^a ×10^-6 cm/s | Papp(basolateral→apical) (Caco-2 cell monolayers): 0.0377^a ×10^-6 cm/s

Source: paper PMC6308302, “Identification of Pharmacokinetic Markers for Guanxin Danshen Drop Pills in Rats by Combination of Pharmacokinetics, Systems Pharmacology, and Pharmacodynamic Assays” (Frontiers in Pharmacology, 2018)
